Experimental data: patent publication US20110008279A1, “Methods and Compositions Relating to Adhesins as Adjuvants” (priority 2005, published 2011)
“And” between values parts separate entries of the source, which are not always exact repeats. Equal values may be shown once. Read-outs that look alike come from different tables or passages of the source.

Columns and labels:
[1] = target: mo-DCs; test: Alexa-NadAΔ351-405 binding to mo-DCs (flow cytometry, Scatchard analysis); design: species or system human; conditions: Scatchard plot
Experimental: In some cases, DCs primed or not with IFN-γ were treated at 37° C. for 1 hour with FCS/RPMI containing Bafilomycin A1 200 nM, incubated at 37° C. (in RPMI medium supplemented with 10% FBS and Bafilomycin A1) or 0° C. (in PBS supplemented with 10% FBS) for 3 hours with different concentrations (0.0375-5 μM) of Alexa-NadAΔ351-405 or NadA. Afterward cells were washed and suspended in FACS buffer for FACS analysis. Scatchard plots were constructed from data obtained from cell-associated mean fluorescence intensities due to cell-bound Alexa NadA were measured. The dissociation constant Kd and maximal binding capacities were then determined by Scatchard analyses.

[2] = tested on: mo-DCs; test: Expression of maturation markers on mo-DCs (flow cytometry); format: cell-based, human; conditions: for CD86 expression on co-stimulation with R-848: R-848 1 μM, NadA 1.5 μM
Experimental: Reagents used were tested for low endotoxin contamination using the Limulus amoebocyte assay (Sigma). Dendritic cells were generated from human peripheral blood mononuclear cells (PBMC) as described previously. In brief, PBMC were isolated from buffy coats of healthy donors by Ficoll-Paque Plus density gradient centrifugation (Amersham Pharmacia Biotech AB). Separate monocyte and T-cell fractions were obtained from PBMCs by Percoll density gradient centrifugation (Amersham Pharmacia Biotech AB). […] DC were obtained by 6-d culture adherent monocytes in medium with 20 ng/ml IL-4 (5×10^6 units/mg, Peprotech) and 50 ng/ml GM-CSF (1×10^7 units/mg, Peprotech). Cytokines were added again on day 4 in RPMI-1640 medium supplemented with 10% FBS. […] After 24 h cells were harvested and analysed. Culture supernatants were collected frozen in liquid nitrogen and conserved at −80° C. for cytokine analysis.
After differentiation, DC were routinely stained with phycoerytrin conjugated monoclonal antibodies to human CD14, CD1a, CD83, CD86 (B7.2), CD80 (B7.1), MHC II (HLA-DR), purchased from BD-Pharminghen and Caltag. In parallel, cells were stained with the isotype matched control mAb. Cells were immunostained with the proper dilution of PE-conjugated anti human monoclonal antibodies at 4° C. for 30 min in 100 μl of phosphate-buffered saline pH 7.2 (PBS, GIBCO BRL) containing 1% FBS and 0.1% NaN3 (FACS buffer). After washing, propidium iodide was added to exclude dead cells and cell fluorescence intensities of the gated populations were measured with a EPICS XL-MCL (Coulter) flow cytometer and analyzed with EXPO 32ADC XL 3COLOR or WinMDI 2.8. software. Data were collected on 10000-20000 events.

[3] = tested on: allogenic CD4+ naïve T lymphocyte; test: Allogenic mixed leukocyte reaction, naive CD4+ T-cell proliferation; format: cell-based, human
Experimental: Allogenic mixed leukocyte reaction was performed with irradiated (3000 rads from a ^137Cs source) mo-DC and purified allogenic T cells. […], LPS 1 μg/ml (positive control) and non stimulated DC (negative control) pretreated or not with IFN-γ 1000 U/ml were washed and cultured with allogenic CD4+ naïve T lymphocyte (0.3×10^5 cells/well) for 5 days at 37° C. in a humidified CO2 incubator in round-bottom 96-well microtiter plates (Costar). Proliferation was measured by pulse-labelling triplicate wells for 6 h with 1 μCi of 3H-Thymidine/well (Amersham Biosciences). Negative controls included T naive cells incubated or DC incubated alone.
^3H-Thymidine incorporation was measured by harvesting cells onto glass fiber filter paper (Pall Corporation, Life Sciences) using a 96-well semiautomatic cell harvester (Multiwash 2000, Dynatech) and counting by liquid scintillation in a […] (Wallac 1409 liquid scintillation counter).

[4] = Heparin-agarose affinity chromatography; format: binding; conditions: salt gradient 0.05-3M NaCl
Experimental: Using, affinity chromatography with different buffers (phosphate 20 mM and hepes 20 mM), pH (5.5, 7.4 and 8.0) and CaCl2 concentrations, the binding of NadA to heparin was further investigated. A solution of hepes 20 mM containing 5 μg NadA was added to 100 μl of heparin-agarose pre-equilibrated in the same buffer. After washing, bound protein was eluted using a salt gradient (0.05-3M NaCl). All the fractions from the previous steps were collected and transferred to nitrocellulose membrane using Dot-blot. The protein was detected with a rabbit polyclonal anti-NadA antibody and phosphatase alcalyne-conjugated goat anti-rabbit anti-IgG with its substrate. This protocol has shown a heterogeneous behaviour for NadA. A fraction of the protein elutes at physiological salt concentrations (100-150 mM NaCl) and a further one elutes at high salt concentrations (up to 3M NaCl).

[5] = tested on: Chang cells; test: NadA binding to Chang cells (heparin, competition with non-labelled NadA); design: species or system human; conditions: NadA 600 nM, fluorescence microscopy
Experimental: Chang and CHO-K1 cells were incubated for 3 h at 37° C. with Alexa^488-labeled NadAΔ351-405 (250 nM) in the presence or the absence of non-labelled NadAΔ351-405 (0, 1, 2.5 or 5 μM), washed and analyzed by FACS; results shown are the relative MFI values ±SE, n=3.
Chang cells were incubated at 37° C. for 3 h with NadA 600 nM and re-incubated 10 min at 37° C. with heparin.

[6] = tested on: human macrophages; test: Cytokine and chemokine secretion by human macrophages (Bio-Plex, IL-23 ELISA); format: cell-based
Experimental: The secretion of various immune mediators by isolated adherent human […] and macrophages was assayed with a Bio-Plex immune array. The pro-inflammatory cytokines IL-1α, IL-1β, TNFα, IFNγ, IL-6, the growth factor GM-CSF, the regulatory cytokines IL-12 (p40), IL-12 (p70), IL-10, as well as the chemokines IL-8, MCP-1, MIP-1α, IP-10, RANTES and EOTAXIN were assayed. The lymphocyte cytokines IL-2, IL-3, IL-4, IL-5, IL-7, IL-13 and IL-15 were also assayed. IL-23 expression was assayed using an ELISA assay. No secretion of IL-2, IL-3, IL-4, IL-5, IL-7, IL-13 or IL-15 was detected.
Peripheral monocytes and macrophages were stimulated with different concentrations of NadAΔ351-405, with or without LPS (0.2 μg/ml) and IFNγ (1000 U/ml), and with purified E. coli or N. meningitis OMV.

NadAΔ351-405
Kd ([1]; read-out: Kd1, high affinity binding sites): 50 to 100 nM and 90 nM | Kd ([1]; read-out: Kd2, low affinity binding sites): 3000 to 5000 nM and 4000 nM | CD86 expression on co-stimulation with R-848 ([2]; no IFN-γ priming): addition of the two effects | CD86 expression on co-stimulation with R-848 ([2]; after IFN-γ priming, flagellin 10 μg/ml): maximal CD86 expression | CD83 level relative to that induced by LPS ([2]; after IFN-γ priming): ~50% | CD86 expression, dose response ([2]; after IFN-γ priming): effectively induced CD86 also in the submicromolar concentration range | CD86 level ([2]; after IFN-γ priming): reached the same value observed in LPS-treated cells | IFN-γ potentiation of NadA effect on CD86 ([2]; at higher NadA concentrations): 2-3 fold | CD86 expression, dose response ([2]; no IFN-γ priming): not different from control cells below 1 μM NadA | plasma membrane HLA-DR expression ([2]; no IFN-γ priming): partially increased | CD83 expression ([2]; no IFN-γ priming, 24 hour exposure, 1 μM / 1.5 μM): not increased | T lymphocyte activation by mo-DCs ([3]; absence of IFN-γ priming, 1 μM): not able to induce a mo-DC phenotype competent for T lymphocyte activation | T cell proliferation relative to LPS-matured mo-DCs ([3]; mo-DCs primed with INFγ then stimulated with NadA): 30-40% | NaCl concentration of elution from heparin-agarose, further fraction [4]: up to 3 M | NaCl concentration of elution from heparin-agarose, one fraction [4]: 100 to 150 mM | protein binding to Chang cells in the presence of heparin [5]: dose-dependent reduction | EOTAXIN expression [6]: decrease | GM-CSF secretion [6]: No secretion | IL-1α production [6]: No IL-1α was produced | IL-1β and TNFα production [6]: produced only IL-1β and TNFα | IL-10 production [6]: induced the production | IP-10 production ([6]; NadA alone): In neither monocytes nor macrophages was NadA alone able to produce IP-10 | IL-12(p40) expression ([6]; NadA alone, even in the presence of LPS and IFNγ): decrease | IL-6 secretion ([6]; together with IFNγ): increasing secretions
